# Reference: ChEMBL document CHEMBL3853344, “A druggable target for rescuing microRNA defects” (Bioorg Med Chem Lett, 2016)
# The source made the active and inactive calls. The rule behind the calls is not given here.
# Tested on: T1, Translin-associated protein X (Homo sapiens), Q99598 [E126A]
# T1 sequence (whole entry): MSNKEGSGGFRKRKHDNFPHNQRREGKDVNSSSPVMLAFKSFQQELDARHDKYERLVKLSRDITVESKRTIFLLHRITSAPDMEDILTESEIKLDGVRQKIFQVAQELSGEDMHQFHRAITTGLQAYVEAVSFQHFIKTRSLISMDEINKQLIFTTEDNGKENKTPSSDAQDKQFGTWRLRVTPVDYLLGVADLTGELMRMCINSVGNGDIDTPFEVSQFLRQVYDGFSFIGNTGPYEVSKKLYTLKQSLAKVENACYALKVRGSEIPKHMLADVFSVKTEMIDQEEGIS
# Assay: Inhibition of wild type His-tagged translin/trax E126A mutant (unknown origin) coexpressed in Escherichia coli BL21 cells using RNase Alert as substrate at 30 uM incubated for 10 mins prior to substrate addition monitored over 60 mins by fluorescence assay
row,Compound,inhibition [%]
1,CCCCCCCCCCCCCCCC[n+]1ccccc1,56
2,O=c1oc2c(O)c(O)cc3c(=O)oc4c(O)c(O)cc1c4c23 [ELLAGIC ACID],94
3,CCCCC(CC)CNC(=N)NC(=N)NCCCCCCNC(=N)NC(=N)NCC(CC)CCCC (stereo unspecified),103
4,Oc1cc(O)c2c(c1)O[C@H](c1cc(O)c(O)c(O)c1)[C@H](O)C2,68
5,O=C(Oc1cc(O)cc2c1C[C@@H](OC(=O)c1cc(O)c(O)c(O)c1)[C@@H](c1cc(O)c(O)c(O)c1)O2)c1cc(O)c(O)c(O)c1,83
6,Cc1ccc(C(=O)Nc2ccc(S(=O)(=O)O)c3cc(S(=O)(=O)O)cc(S(=O)(=O)O)c23)cc1NC(=O)c1cccc(NC(=O)Nc2cccc(C(=O)Nc3cc(C(=O)Nc4ccc(S(=O)(=O)O)c5cc(S(=O)(=O)O)cc(S(=O)(=O)O)c45)ccc3C)c2)c1,61
7,CCCCCCCCCCCCCCCCC(C(=O)O)C(O)(CC(=O)O)C(=O)O (stereo unspecified),58
8,Cc1cc(O)c(C=O)c2c1C(=O)Oc1c(C)c(O)c3c(c1O2)C(O)OC3=O (stereo unspecified),66
9,O=c1c(O)c(-c2ccc(O)c(O)c2)oc2cc(O)cc(O)c12,58
10,O=C(O[C@@H]1Cc2c(O)cc(O)cc2O[C@@H]1c1cc(O)c(O)c(O)c1)c1cc(O)c(O)c(O)c1,88
11,O=C1C(O)=C(O)C(=O)C(O)=C1O,66
12,O=c1c(-c2cc(O)c(O)c(O)c2)coc2cc(O)c(O)c(O)c12,78
13,CC(C)(O/N=C(\C(=O)N[C@@H]1C(=O)N2C(C(=O)[O-])=C(C[n+]3ccccc3)CS[C@H]12)c1csc(N)n1)C(=O)O,100
14,Oc1cc2c(cc1O)[C@@H]1c3ccc(O)c(O)c3OC[C@]1(O)C2,63
15,Oc1c(Cl)cc(Cl)c(Cl)c1Cc1c(O)c(Cl)cc(Cl)c1Cl,66
16,O=S(=O)(O)c1cc(N=C=S)ccc1/C=C/c1ccc(N=C=S)cc1S(=O)(=O)O,103
17,COc1cc(C)c2c(c1C=O)Oc1c(c(C)c(O)c3c1C(O)OC3=O)OC2=O (stereo unspecified),58
18,O=c1c(O)cc(C2Oc3cc(O)cc(O)c3CC2O)cc2cc(O)c(O)c(O)c12 (stereo unspecified),75
19,O=C(OC[C@H]1O[C@@H](OC(=O)c2cc(O)c(O)c(OC(=O)c3cc(O)c(O)c(O)c3)c2)[C@H](OC(=O)c2cc(O)c(O)c(OC(=O)c3cc(O)c(O)c(O)c3)c2)[C@@H](OC(=O)c2cc(O)c(O)c(OC(=O)c3cc(O)c(O)c(O)c3)c2)[C@@H]1OC(=O)c1cc(O)c(O)c(OC(=O)c2cc(O)c(O)c(O)c2)c1)c1cc(O)c(O)c(OC(=O)c2cc(O)c(O)c(O)c2)c1,103

# Target: Translin-associated protein X (Homo sapiens, UniProt Q99598, E126A)
# Assay: Inhibition of wild type His-tagged translin/trax E126A mutant (unknown origin) coexpressed in Escherichia coli BL21 cells assessed as reduction in pre-miRNA degradation by gel electrophoresis assay
row,Compound,IC50 [µM]
1,O=c1oc2c(O)c(O)cc3c(=O)oc4c(O)c(O)cc1c4c23 [ELLAGIC ACID],3.5

# Tested on: T1, Translin-associated protein X (Homo sapiens), Q99598 [E126A]
# Assay: Inhibition of wild type His-tagged translin/trax E126A mutant (unknown origin) coexpressed in Escherichia coli BL21 cells assessed as increase in Dicer-mediated 5'-gamma32P-ATP labeled pre-miRNA processing at 5 uM after 15 mins by gel electrophoresis assay
row,Compound,inhibition
1,O=c1oc2c(O)c(O)cc3c(=O)oc4c(O)c(O)cc1c4c23 [ELLAGIC ACID],Active
